{"source": "paper PMC7956620", "about": "(Molecules, 2021)", "key": {"mice": {"test_system": "mice", "set-up": "method as in PMID 31052510", "details": "mice ref 32; cited from earlier work"}, "[1]": {"target": "T1, 5-HT3A receptor Y91A mutant (Homo sapiens, UniProt P46098, Y86A)", "T1 construct": "host or cells: Xenopus laevis oocytes injected with in vitro transcribed mRNA", "T1 sequence (P46098 24-478 Y86A)": "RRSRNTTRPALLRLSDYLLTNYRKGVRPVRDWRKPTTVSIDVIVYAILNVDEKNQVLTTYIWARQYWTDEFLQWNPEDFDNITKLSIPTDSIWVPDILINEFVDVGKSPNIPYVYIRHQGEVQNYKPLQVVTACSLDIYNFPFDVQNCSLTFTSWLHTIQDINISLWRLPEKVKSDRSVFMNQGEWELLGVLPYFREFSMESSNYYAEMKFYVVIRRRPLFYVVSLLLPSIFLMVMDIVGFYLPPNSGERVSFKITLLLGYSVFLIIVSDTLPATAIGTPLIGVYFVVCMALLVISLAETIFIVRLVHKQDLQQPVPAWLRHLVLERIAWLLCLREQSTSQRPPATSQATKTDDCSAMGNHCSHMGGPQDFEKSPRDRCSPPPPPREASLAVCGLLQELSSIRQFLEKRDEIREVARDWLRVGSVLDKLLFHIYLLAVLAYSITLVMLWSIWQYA", "test": "two-electrode voltage clamp, Y91A mutant receptor in Xenopus oocytes", "format": "cell-based", "details": "100 µM chanoclavine, read-out: Inhibition Percentage (%)", "experimental": "(§1) The site-directed mutation of one or two amino acids was performed using sense and antisense primers and Pfu polymerase (QuickChange Site-Directed Mutagenesis Kit; Agilent, Santa Clara, CA, USA) and amplified by polymerase chain reaction (PCR) to increase the target domain. After removing the existing methylated cDNA using Dpn Ⅰ, the PCR products were transformed into Escherichia coli strain DH5α. The cDNA of the 5-HT3A receptor was linearized by Xho Ⅰ at the end of the multi-cloning site, followed by transcription using T7 polymerase and a transcription kit (mMESSAGE mMACHINE T7 Transcription Kit; Thermo Fisher Scientific, Waltham, MA, USA). […]\n(§2) To isolate oocytes, female Xenopus laevis were put into a container filled with ice and left for about one hour. […] When the Xenopus oocytes were ready for injection, 50 ng of mRNA was injected with a nanoliter injector (Drummond Scientific, Vernon Hills, IL, USA). […]\n(§3) The oocytes in which mRNA was expressed during the incubation period allowed for the estimation of channel or receptor properties for observing drug and ligand potential interactions using a two-electrode voltage clamp (OC-725C; Warner Instruments, Hamden, CT, USA) and Digidata (1322A; Molecular Devices, Sunnyvale, CA, USA). […] The voltage and current electrodes were filled with 3 M KCl (0.3–0.7 MΩ) and analyzed at a −80 mV holding potential. […]"}, "[2]": {"target": "T2, 5-HT3A receptor L156A mutant (Homo sapiens, UniProt P46098, L151A)", "T2 construct": "host or cells: Xenopus laevis oocytes injected with in vitro transcribed mRNA", "T2 sequence (P46098 24-478 L151A)": "T1 sequence (P46098 24-478 Y86A) with A63Y, L128A", "test": "two-electrode voltage clamp, L156A mutant receptor in Xenopus oocytes", "format": "cell-based", "details": "100 µM chanoclavine, read-out: Inhibition Percentage (%)", "experimental": "as §1, §2, §3"}, "[3]": {"target": "T3, 5-HT3A receptor I71A mutant (Homo sapiens, UniProt P46098, I66A)", "T3 construct": "host or cells: Xenopus laevis oocytes injected with in vitro transcribed mRNA", "T3 sequence (P46098 24-478 I66A)": "T1 sequence (P46098 24-478 Y86A) with I43A, A63Y", "test": "two-electrode voltage clamp, I71A mutant receptor in Xenopus oocytes", "format": "cell-based", "details": "100 µM chanoclavine, read-out: Inhibition Percentage (%)", "experimental": "as §1, §2, §3"}}, "note": "Positions count from the first letter of the chain named.", "data": [{"molecule": "CN[C@@H]1Cc2c[nH]c3cccc(c23)[C@H]1/C=C(\\C)CO", "note": "[chanoclavine]", "values": [{"measurement": "toxicity (gross hematology, blood chemistry, pathology, histology)", "setting": "mice", "value": "low toxicity"}, {"measurement": "inhibition at 100 µM", "setting": "[1]", "value": "50.2 ± 5.1", "unit": "%"}, {"measurement": "inhibition at 100 µM", "setting": "[2]", "value": "46.1 ± 6.5", "unit": "%"}, {"measurement": "inhibition at 100 µM", "setting": "[3]", "value": "62.7 ± 3.1", "unit": "%"}]}]}
